Data on 5 molecules can be found in patent publication US4833160A, “3-(3,5-di-tert-butyl-4-hydroxy benzylidene)-2-pyrrolidone and substituted derivatives thereof” (Eisai Co., Ltd., priority 1985, dated 1989).

Data set [1] can be described thus: Effect of inducing gastric ulcer. In kind it is in vivo, male Fisher rat. Conditions: rat, oral, fasted 24 hours, after six hours, read-out: UD50 (50% ulcer inducing dose). How it is done:
A male Fisher rat aged seven weeks was kept fasting for 24 hours and then each test compound suspended in a 5% aqueous solution of gum arabic was orally administered thereto.

For a further data set, the system named is adjuvant inflammation. As to the kind of experiment: Effect of lowering local surface temperature at inflammation (adjuvant inflammation, butter bacillus, hind foot). Conditions: Rattus norvegicus, 6 h, read-out: Dose (mg/kg) required for lowering local temperature at inflammatory site by at least 2° C. The format is in vivo, male Fisher rat. On the procedure: 0.05 ml of a suspension of butter bacillus in liquid paraffin (10 mg/ml) was injected into the sole of the right hind foot of a male Fisher rat aged six weeks to thereby induce adjuvant inflammation. After three to five days, the surface temperature of the inflammatory foot was constantly higher by 8° to 10° C. than that of a normal foot. The test compounds as described hereinbelow and control compounds (i.e. indomethacin and pyroxycam) were each suspended in a 5% aqueous solution of gum arabic and orally administered to the rat in a dose of 5 ml/kg body weight. The local surface temperature of the inflammatory site was determined after two, four and six hours according to the method of H. Shirota et al. (cf. J. Pharmacol. Methods, 12, 35-43 (1984)). The dose required for lowering the surface temperature by at least 2° C. below that prior to the administration was calculated by averaging data of two animals, thus determining the anti-inflammatory titer of each test compound.

Data set [2] relates to carrageenan edema at foot-sole. In words: Effect of suppressing carrageenan edema at foot-sole. The format is in vivo, Male Fisher rats. The following applies: 10 mg/kg, one hour before carrageenan; volume measured three hours after carrageenan injection; groups of five animals. How it is done:
Male Fisher rats aged five weeks were classified into groups each having five animals. Each test compound was suspended in a 5% aqueous solution of gum arabic and administered to each rat in a dose of […] body weight. After one hour, a 1% carrageenan solution was injected into the sole of the right hind foot of the animal to thereby induce inflammation. Three hours after the carrageenan injection, the volume of the sole of each hind foot of the animal was measured to calculate the volume-gain of the foot-sole to which carrageenan was injected. The obtained data was compared with those of the control groups, thus determining the suppression ratio of the test compound. The same test compounds as used in Pharmacological Example 1 were used.

Data set [3] is described as follows: Acute Toxicity Test, mice. In kind it is in vivo. The following applies: mouse, in vivo. On the procedure: (§1) LD 50 of the compound B, falling within the scope of the invention, was investigated in respect to acute toxicity, using rats and mice.
(§2) *Values were calculated according to BehrensKarber method. The oral
(§3) administration was conducted after a fasting treatment for 17 to 24 hours

In the next data set the test system is mice. In words: Acute Toxicity Test, mice. In kind it is in vivo. The following applies: oral, male mice, after fasting 17 to 24 hours. On the procedure: as §1, §2, §3
The nature of data set [4]: Acute Toxicity Test, rats. The following applies: rat, in vivo. How it is done: as §1, §2, §3
Where [5] appears, read: oral, suspended in 5% gum arabic, temperature after two, four and six hours, averaging data of two animals.

What is called LD50 is the dose at which mortality reaches 50%.

Read-outs that look alike come from different tables or passages of the source. A value given as a limit tells only on which side of the number the result lay.

Take `CN1C(C(=O)Nc2ccccn2)=C(O)c2ccccc2S1(=O)=O` [Piroxicam, reference compound]: the TD50 at 6 h in data set [1] (in vivo) was 23.1 mg/kg. For the same molecule, the minimal effective dose in the data set with adjuvant inflammation (setting [5]) was found to be 0.3 mg/kg.
`COc1ccc2c(c1)c(CC(=O)O)c(C)n2C(=O)c1ccc(Cl)cc1` [Indomethacin, indomethacin, reference compound]: the Suppression ratio in data set [2] was 37.7. Further, in data set [1] (in vivo), the TD50 at 6 h is 7.8 mg/kg. In the data set on adjuvant inflammation (po), the minimal effective dose worked out at 0.3 mg/kg.
Regarding `CC(C)(C)c1cc(C=C2CCNC2=O)cc(C(C)(C)C)c1O` [Compound C, 3-(3,5-di-tert-butyl-4-hydroxybenzylidene)-2-pyrrolidone], the Suppression ratio in data set [2] amounted to 38.5. For the same molecule, the TD50 at 6 h in data set [1] (stomach) was found to be 75.8 mg/kg. For the same molecule, the minimal effective dose with adjuvant inflammation (setting [5]) turned out to be 0.3 mg/kg.
With `CN1CCC(=Cc2cc(C(C)(C)C)c(O)c(C(C)(C)C)c2)C1=O` [Compound A, N-methyl-3-(3,5-di-tert-butyl-4-hydroxybenzylidene)-2-pyrrolidone], the Suppression ratio in data set [2] was found to be 36.1. Besides, in the data set on adjuvant inflammation (setting [5]), the minimal effective dose was determined as 1 mg/kg.
Regarding `CON1CCC(=Cc2cc(C(C)(C)C)c(O)c(C(C)(C)C)c2)C1=O` [Compound B, N-methoxy-3-(3,5-di-tert-butyl-4-hydroxybenzylidene)-2-pyrrolidone], in data set [2], the Suppression ratio was determined as 36.4. For the same molecule, in data set [1] (in vivo), the TD50 at 6 h was determined as 473 mg/kg. For the same molecule, the LD50 was 805 mg/kg in data set [3] (ip, abdominal, female mice, confidence range 443.9~1549.3); 1070 mg/kg in data set [3] (ip, abdominal, male mice, confidence range 523~2270); 6870 mg/kg in data set [3] (po, female mice, after fasting 17 to 24 hours); above 4000 mg/kg in data set [3] (sc, hypodermic, female mice); above 4000 mg/kg in data set [3] (sc, hypodermic, male mice); 4000~2000 in the data set with mice. The 50% lethal dose (LD50) in data set [4] (ip, abdominal, female rats, calculated according to Behrens-Karber method (*)) was 46.9 mg/kg; in data set [4] (ip, abdominal, male rats, calculated according to Behrens-Karber method (*)), 96.7 mg/kg; in data set [4] (po, female rats, after fasting 17 to 24 hours, calculated according to Behrens-Karber method (*)), 161 mg/kg; in data set [4] (po, male rats, after fasting 17 to 24 hours), 354 mg/kg; in data set [4] (sc, hypodermic, female rats, confidence range 124~476), 291 mg/kg; in data set [4] (sc, hypodermic, male rats, calculated according to Behrens-Karber method (*)), 806 mg/kg. The minimal effective dose in the data set with adjuvant inflammation (po) came to 0.3 mg/kg.
